# PubChem BioAssay (NCI)
#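 Cultured in 96-well plates, cells were exposed to test compound for 48 hours across five concentrations. GI50 is the concentration that inhibits growth by half. Definition used: TGI = concentration required for complete inhibition of growth.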
# Experiments:
# Assay in all cases: DTP human tumour cell line panel, 48 h
# UACC-62 melanoma = tested on: UACC-62 melanoma
# RXF 393 renal = tested on: RXF 393 renal
# DU-145 prostate = tested on: DU-145 prostate
# MALME-3M melanoma = tested on: MALME-3M melanoma
# HCT-116 colon = tested on: HCT-116 colon
# SK-OV-3 ovarian = tested on: SK-OV-3 ovarian
# RPMI-8226 leukemia = tested on: RPMI-8226 leukemia
# SNB-19 CNS = tested on: SNB-19 CNS
# NCI-H226 lung = tested on: NCI-H226 lung
# OVCAR-8 ovarian = tested on: OVCAR-8 ovarian
Compound,GI50 (UACC-62 melanoma),TGI (UACC-62 melanoma),GI50 (RXF 393 renal),TGI (RXF 393 renal),GI50 (DU-145 prostate),TGI (DU-145 prostate),GI50 (MALME-3M melanoma),TGI (MALME-3M melanoma),GI50 (HCT-116 colon),TGI (HCT-116 colon),GI50 (SK-OV-3 ovarian),TGI (SK-OV-3 ovarian),GI50 (RPMI-8226 leukemia),TGI (RPMI-8226 leukemia),GI50 (SNB-19 CNS),TGI (SNB-19 CNS),GI50 (NCI-H226 lung),TGI (NCI-H226 lung),GI50 (OVCAR-8 ovarian),TGI (OVCAR-8 ovarian)
N#CSc1ncnc2nc[nH]c12,4.1 µM,> 100 µM,21.6 µM,> 100 µM,0.548 µM,> 38.7 µM,10.6 µM,> 100 µM,3.04 µM,> 100 µM,2.42 µM,> 100 µM,4.13 µM,> 100 µM,> 100 µM,> 100 µM,> 100 µM,> 100 µM,5.72 µM,> 100 µM
N#Cc1ncc(/N=C/c2ccc(N(CCCl)CCCl)cc2)s1,3.09 µM,28.7 µM,12.4 µM,28.9 µM,5.62 µM,57.1 µM,30.8 µM,> 100 µM,30.2 µM,> 100 µM,27.7 µM,> 100 µM,53.7 µM,> 100 µM,77.7 µM,> 100 µM,0.897 µM,7.71 µM,7.58 µM,> 100 µM
C=C(C)[C@@H]1CC[C@]2(C(=O)NCCCN)CC[C@]3(C)[C@H](CC[C@@H]4[C@@]5(C)CC[C@H](O)C(C)(C)[C@@H]5CC[C@]43C)[C@@H]12,27.4 µM,93.2 µM,17 µM,44.1 µM,17.5 µM,37.1 µM,23.3 µM,94.1 µM,13.9 µM,62.4 µM,17.7 µM,49.4 µM,17.2 µM,92.6 µM,24.7 µM,84.5 µM,21.2 µM,> 100 µM,27.7 µM,87.7 µM
N#CC(C#N)=Cc1ccc(-c2ccc(-c3nc4ccccc4s3)cc2)o1,21.7 µM,70.3 µM,42.4 µM,> 100 µM,18.2 µM,78.2 µM,22.2 µM,> 100 µM,5.11 µM,24.9 µM,10 µM,35.4 µM,,,30 µM,84.3 µM,14.2 µM,39.2 µM,12.7 µM,33.1 µM
CN(C)CCNC(=O)c1cccn2c(=O)c3cc4ccccc4cc3nc12,0.194 µM,1.37 µM,0.0981 µM,0.286 µM,0.103 µM,0.391 µM,0.116 µM,0.617 µM,,,0.235 µM,22.8 µM,0.24 µM,,0.185 µM,47.7 µM,0.145 µM,2.99 µM,0.0577 µM,> 69.6 µM
COc1ccc2c(c1)CCC1C2CCC2(C)C1CCC2(O)CNC(=O)CCCCC1CCSS1 (stereo not drawn),13.9 µM,49.4 µM,11.7 µM,44 µM,46.3 µM,> 100 µM,> 100 µM,> 100 µM,9.3 µM,> 100 µM,,,2.43 µM,9.48 µM,18.1 µM,51.1 µM,13.3 µM,> 100 µM,11.7 µM,> 100 µM
